Data: ChEMBL document CHEMBL5338807, “Design and Synthesis of Bouchardatine Derivatives as a Novel AMP-Activated Protein Kinase Activator for the Treatment of Colorectal Cancer” (J Med Chem, 2023)
Active and inactive are the calls of the source. No cut-off for these calls is given here.

Key:
RKO [1] = experiment: Antiproliferative activity against human RKO cells assessed as reduction in cell viability incubated for 24 hrs; format: functional, cell-based
RKO [2] = experiment: Effect on metabolism in human RKO cells assessed as enhancement of oxidative phosphorylation at 2 mM measured after 24 hrs by seahorse analysis; format: functional, cell-based
RKO [3] = experiment: Effect on energy metabolism in human RKO cells assessed as decrease in ATP production incubated for 24 hrs by luminescence based analysis; format: functional, cell-based
RKO [4] = experiment: Effect on energy metabolism in human RKO cells assessed as decrease in AMP level incubated for 24 hrs by luminescence based analysis; format: functional, cell-based
RKO [5] = experiment: Antiproliferative activity against human RKO cells assessed as inhibition of colony formation at 1 uM measured after 7 days by crystal violet staining based assay; format: functional, cell-based; details: time 7.0 day
RKO [6] = experiment: Inhibition of cell migration of human RKO cells at 1 uM incubated for 48 hrs by wound healing assay; format: functional, cell-based
RKO [7] = experiment: Effect on metabolism in human RKO cells assessed as activation of oxidative phosphorylation at 1 uM measured after 24 hrs by seahorse analysis; format: functional, cell-based
RKO [8] = experiment: Effect on metabolism in human RKO cells assessed as enhancement of oxygen consumption rate at 0.1 uM measured after 24 hrs by seahorse analysis; format: functional, cell-based
DLD-1 = experiment: Antiproliferative activity against human DLD-1 cells assessed as reduction in cell viability incubated for 24 hrs; format: functional, cell-based; details: DLD-1, 24 h
HCT-116 = experiment: Antiproliferative activity against human HCT-116 cells assessed as reduction in cell viability incubated for 24 hrs; format: functional, cell-based; details: HCT-116, 24 h
SW480 = experiment: Antiproliferative activity against human SW480 cells assessed as reduction in cell viability incubated for 24 hrs; format: functional, cell-based; details: SW480, 24 h
[9] = Cytotoxicity against human NCM460 cells assessed as reduction in cell viability incubated for 24 hrs; format: toxicity, cell-based
[10] = Cytotoxicity against human LX2 cells assessed as reduction in cell viability incubated for 24 hrs; format: toxicity, cell-based; details: LX-2 cells
[11] = Cytotoxicity against human L02 cells assessed as reduction in cell viability incubated for 24 hrs; format: toxicity, cell-based
RKO [12] = experiment: Antiproliferative activity against human RKO cells assessed as reduction in cell density at 0.1 uM measured after 16 hrs by RTCA assay; format: functional, cell-based
RKO [13] = experiment: Antiproliferative activity against human RKO cells assessed as cell killing at 0.5 uM measured after 16 hrs by RTCA assay; format: functional, cell-based
RKO [14] = experiment: Antiproliferative activity against human RKO cells assessed as inhibition of colony formation at 0.1 uM measured after 7 days by crystal violet staining based assay; format: functional, cell-based; details: time 7.0 day
RKO [15] = experiment: Inhibition of cell migration of human RKO cells at 0.1 uM incubated for 48 hrs by wound healing assay; format: functional, cell-based
RKO [16] = experiment: Effect on metabolism in human RKO cells assessed as oxygen consumption rate by measuring enhancement of basal respiration at 0.1 uM measured after 24 hrs by seahorse analysis; format: functional, cell-based
RKO [17] = experiment: Effect on metabolism in human RKO cells assessed as oxygen consumption rate by measuring enhancement of maximal respiration at 0.1 uM measured after 24 hrs by seahorse analysis; format: functional, cell-based
RKO [18] = experiment: Effect on metabolism in human RKO cells assessed as oxygen consumption rate by measuring enhancement of ATP production at 0.1 uM measured after 24 hrs by seahorse analysis; format: functional, cell-based
RKO [19] = experiment: Effect on metabolism in human RKO cells assessed as oxygen consumption rate by measuring enhancement of proton leak at 0.1 uM measured after 24 hrs by seahorse analysis; format: functional, cell-based
NCM460 = experiment: Effect on metabolism in human NCM460 cells assessed as change in extracellular acidification rate at 0.1 uM measured after 24 hrs by seahorse analysis; format: functional, cell-based
RKO [20] = experiment: Effect on energy metabolism in human RKO cells assessed as upregulation of ATP production incubated for 24 hrs by luminescence based analysis; format: functional, cell-based
RKO [21] = experiment: Effect on energy metabolism in human RKO cells assessed as increase in AMP level incubated for 24 hrs by luminescence based analysis; format: functional, cell-based
RKO [22] = experiment: Effect on energy metabolism in human RKO cells assessed as increase in mitochondrial membrane potential at 0.1 uM incubated for 24 hrs by rhodamine 123 staining based flow cytometric analysis; format: functional, cell-based
RKO [23] = experiment: Induction of mitochondrial damage in human RKO cells assessed as decrease in ROS level at 0.1 uM incubated for 24 hrs by DCFH-DA staining based flow cytometric analysis; format: functional, cell-based
RKO [24] = experiment: Upregulation of p-AMPK expression in human RKO cells at 0.1 uM incubated for 24 hrs by Western blotting analysis; format: functional, cell-based
RKO [25] = experiment: Upregulation of mitochondrial complex III in human RKO cells at 0.1 uM incubated for 24 hrs by Western blotting analysis; format: functional, cell-based
RKO [26] = experiment: Upregulation of mitochondrial complex V in human RKO cells at 0.1 uM incubated for 24 hrs by Western blotting analysis; format: functional, cell-based
RKO [27] = experiment: Antiproliferative activity against human RKO cells assessed as reduction in cell viability incubated for 24 hrs by propidium iodide staining based high-content screening method; format: functional
RKO [28] = experiment: Antiproliferative activity against human RKO cells assessed as reduction in cell viability incubated for 24 hrs in presence of oligomycin by propidium iodide staining based high-content screening method; format: functional
RKO [29] = experiment: Antiproliferative activity against human RKO cells assessed as reduction in cell viability incubated for 24 hrs in presence of FCCP by propidium iodide staining based high-content screening method; format: functional
RKO [30] = experiment: Antiproliferative activity against human RKO cells assessed as reduction in cell viability incubated for 24 hrs by propidium iodide staining based high-content screening method relative to control; format: functional
RKO [31] = experiment: Antiproliferative activity against human RKO cells assessed as reduction in cell viability incubated for 24 hrs in presence of oligomycin by propidium iodide staining based high-content screening method relative to control; format: functional
RKO [32] = experiment: Antiproliferative activity against human RKO cells assessed as reduction in cell viability incubated for 24 hrs in presence of FCCP by propidium iodide staining based high-content screening method relative to control; format: functional
RKO [33] = experiment: Antitumor activity against human RKO cells xenografted in BALB/nude mouse assessed as tumor growth inhibition at 10 mg/kg, ip administered once daily for 25 days; format: functional; details: 600 h, time 25 day
[34] = Toxicity in BALB/nude mouse xenografted with human RKO cells assessed as body weight loss at 10 mg/kg, ip administered once daily for 25 days; format: organism-based; details: in vivo, 600 h, time 25 day
RKO [35] = experiment: Antitumor activity against human RKO cells xenografted in BALB/nude mouse assessed as activation of p-AMPKalpha at Thr172 residue in tumor tissue at 10 mg/kg, ip administered once daily for 25 days by immunohistochemical based microscopic analysis; format: functional, organism-based; details: time 25.0 day

CC(=O)c1c(-c2nc(NCCN3CCCCC3)c3ccccc3n2)[nH]c2ccccc12
IC50 (RKO [1]): 9.5 µM

O=Cc1c(-c2nc(NCCCC(=O)O)c3ccccc3n2)[nH]c2ccccc12
IC50 (RKO [1]): > 10 µM

NC(=O)c1ncn([C@@H]2O[C@H](CO)[C@@H](O)[C@H]2O)c1N
Activity (RKO [2]): Active
Activity (RKO [3]): Active
Activity (RKO [4]): Active

CC(=O)c1c(-c2nc(NCCCN(C)C)c3ccccc3n2)[nH]c2ccccc12
IC50 (RKO [1]): > 10 µM

O=Cc1c(-c2nc(NCCN3CCCC3)c3ccccc3n2)[nH]c2ccc(Cl)cc12
IC50 (RKO [1]): 2.5 µM

COc1ccc2[nH]c(-c3nc(NCCN4CCCC4)c4ccccc4n3)c(C=O)c2c1
IC50 (RKO [1]): 1.6 µM

CC(C)(C)OC(=O)NCCCNc1nc(-c2[nH]c3ccccc3c2C=O)nc2ccccc12
IC50 (RKO [1]): 5.4 µM

O=Cc1c(-c2nc(NCCc3ccccc3)c3ccccc3n2)[nH]c2ccccc12
IC50 (RKO [1]): 0.8 µM
inhibition (RKO [5]): Active
inhibition (RKO [6]): Active
Activity (RKO [7]): inactive

CCCS(=O)(=O)Nc1nc(-c2[nH]c3ccccc3c2C=O)nc2ccccc12
IC50 (RKO [1]): > 10 µM

O=Cc1c(-c2nc(NCCN3CCCC3)c3ccccc3n2)[nH]c2ccc(F)cc12
IC50 (RKO [1]): 2.1 µM

COCCNc1nc(-c2[nH]c3ccccc3c2C=O)nc2ccccc12
IC50 (RKO [1]): 4.1 µM

O=Cc1c(-c2nc(NCCNC(=O)C3CC3)c3ccccc3n2)[nH]c2ccccc12
IC50 (RKO [1]): 1.2 µM

Cc1c(-c2nc(N(C)CCCN(C)C)c3ccccc3n2)[nH]c2ccccc12
IC50 (RKO [1]): > 10 µM

COc1ccc2[nH]c(-c3nc(NCCCN(C)C)c4ccccc4n3)c(C=O)c2c1
IC50 (RKO [1]): 8.1 µM

COC(=O)c1c(-c2nc(NCCN3CCCC3)c3ccccc3n2)[nH]c2ccccc12
IC50 (RKO [1]): 6.1 µM

O=Cc1c(-c2nc(Nc3ccc(N4CCCCC4)cc3)c3ccccc3n2)[nH]c2ccccc12
IC50 (RKO [1]): > 10 µM

CCC(=O)Nc1nc(-c2[nH]c3ccccc3c2C=O)nc2ccccc12
IC50 (RKO [1]): > 10 µM

CCN1CCC[C@H]1CNc1nc(-c2[nH]c3ccccc3c2C=O)nc2ccccc12
IC50 (RKO [1]): 0.9 µM
inhibition (RKO [5]): Active
inhibition (RKO [6]): Active
Activity (RKO [7]): Active

O=Cc1c(-c2nc(NCC(F)F)c3ccccc3n2)[nH]c2ccccc12
IC50 (RKO [1]): 7.9 µM

CC(=O)c1c(-c2nc(NCCN(C)C)c3ccccc3n2)[nH]c2ccccc12
IC50 (RKO [1]): > 10 µM

O=Cc1c(-c2nc(NCCc3ccc(O)cc3)c3ccccc3n2)[nH]c2ccccc12
Activity (RKO [8]): Active
IC50 (RKO [1]): 0.1 µM
IC50 (DLD-1): < 1 µM
IC50 (HCT-116): < 1 µM
IC50 (SW480): < 1 µM
IC50 at 24 h [9]: > 15 µM
IC50 at 24 h [10]: > 15 µM
IC50 at 24 h [11]: > 15 µM
Activity (RKO [12]): Active
Activity (RKO [13]): Active
inhibition (RKO [14]): Active
inhibition (RKO [15]): Active
Activity (RKO [16]): Active
Activity (RKO [17]): Active
Activity (RKO [18]): Active
Activity (RKO [19]): Active
Activity (NCM460): inactive
Activity (RKO [20]): Active
Activity (RKO [21]): Active
Activity (RKO [22]): Active
Activity (RKO [23]): Active
Activity (RKO [24]): Active
Activity (RKO [25]): Active
Activity (RKO [26]): Active
IC50 (RKO [27]): 0.07 µM
IC50 (RKO [28]): > 1 µM
IC50 (RKO [29]): > 1 µM
inhibition (INH) (RKO [30]): 92%
inhibition (INH) (RKO [31]): 52%
inhibition (INH) (RKO [32]): 25%
inhibition in vivo at 10 mg/kg (RKO [33]): 58.2%
Activity [34]: Non-Toxic
Activity (RKO [35]): Active

O=Cc1c(-c2nc(NCCO)c3ccccc3n2)[nH]c2ccccc12
IC50 (RKO [1]): > 10 µM

CN(C)CCCNc1nc(-c2[nH]c3ccc(F)cc3c2C=O)nc2ccccc12
IC50 (RKO [1]): 1.9 µM

Cc1ccc2[nH]c(-c3nc(NCCN4CCCC4)c4ccccc4n3)c(C=O)c2c1
IC50 (RKO [1]): 0.7 µM
inhibition (RKO [5]): Active
inhibition (RKO [6]): Active
Activity (RKO [7]): Active

O=Cc1c(-c2nc(NC34CC5CC(CC(C5)C3)C4)c3ccccc3n2)[nH]c2ccccc12
IC50 (RKO [1]): > 10 µM

O=Cc1c(-c2nc(NCCCC(F)(F)F)c3ccccc3n2)[nH]c2ccccc12
IC50 (RKO [1]): 4.6 µM

Cc1c(-c2nc(NCCN3CCCCC3)c3ccccc3n2)[nH]c2ccccc12
IC50 (RKO [1]): > 10 µM
